In assay [1] the target is T1, WbDHFR (dihydrofolate reductase) (Wuchereria bancrofti, UniProt J9F199). As to the kind of experiment: X-ray crystal structure ([…] Å) and tryptophan fluorescence equilibrium titration. It is filed as binding. On the set-up: gene WUBG_00817; open reading frame with engineered N-terminal His6-tag.
For assay [2], the target named is T1, WbDHFR (dihydrofolate reductase). As to the kind of experiment: biochemical. Also noted: gene WUBG_00817.

`NC(=O)C1=CN([C@@H]2O[C@H](COP(=O)(O)OP(=O)(O)OC[C@H]3O[C@@H](n4cnc5c(N)ncnc54)[C@H](OP(=O)(O)O)[C@@H]3O)[C@@H](O)[C@H]2O)C=CC1` [NADPH]: the affinity in assay [1], expressed as Kd, was 90 ± 29 nM.
Turning to `COc1cc(NCc2ccc3nc(N)nc(N)c3c2C)cc(OC)c1OC` [TMX, trimetrexate], the IC50 – broadly, the concentration at which inhibition is half-maximal – in assay [2] was 490 ± 160 nM.
For the compound `Nc1nc2ncc(CNc3ccc(C(=O)N[C@@H](CCC(=O)O)C(=O)O)cc3)nc2c(=O)[nH]1` [folate], binding in assay [1] was characterised by a dissociation constant (Kd) of 23 ± 4 nM.

For the origin of these results see paper PMC10191325 (PLOS Neglected Tropical Diseases, 2023).
